Reference: ChEMBL document CHEMBL3885861, “Open TG-GATES”

Species: Rattus norvegicus
Test: Open TG-GATES - Regimen: Single
Assay type: toxicity, organism-based, Sprague-Dawley
Parameters: regimen Single, gender Male, age 6 weeks
Details: in vivo, po, 15 mg/kg, route gavage, dose level Middle; for APTT / Bas / Eos / Fbg / Hb / Ht / Lym / MCH / MCHC / MCV / Mono / Neu / PT / Plat / RBC / Ret / WBC: tissue Blood; for KIDNEY_L / KIDNEY_R / KIDNEY_TOTAL: tissue Kidney; for LIVER: tissue Liver; for A/G / ALP / ALT / AST / BUN / CRE / Ca / Cl / DBIL / GLC / IP / K / LDH / Na / PL / RALB / TBIL / TC / TG / TP / gamma-GTP: tissue Plasma

Structure (SMILES): CC(=N)S [THIOACETAMIDE]
- TERMINAL_BW (3 h): 190.8 g
- APTT (3 h): 16.9 s
- Bas (3 h): 0%
- Eos (3 h): 0.2%
- Fbg (3 h): 228 mg/dL
- Hb (3 h): 13.2 g/dL
- Ht (3 h): 39.8%
- Lym (3 h): 82%
- MCH (3 h): 21.7 pg
- MCHC (3 h): 33.1%
- MCV (3 h): 65.4 fL
- Mono (3 h): 8%
- Neu (3 h): 10%
- PT (3 h): 12.4 s
- Plat (3 h): 102.8 x10_4/uL
- RBC (3 h): 608.5 x10_4/ul
- Ret (3 h): 10%
- WBC (3 h): 130 x10_2/uL
- KIDNEY_L (3 h): 0.9 g
- KIDNEY_R (3 h): 0.9 g
- KIDNEY_TOTAL (3 h): 1.8 g
- LIVER (3 h): 8.9 g
- A/G (3 h): 2.4
- ALP (3 h): 868.5 IU/L
- ALT (3 h): 33.8 IU/L
- AST (3 h): 71 IU/L
- BUN (3 h): 11.8 mg/dL
- CRE (3 h): 0.5 mg/dL
- Ca (3 h): 10.9 mg/dL
- Cl (3 h): 104.5 meq/L
- DBIL (3 h): 0.0025 mg/dL
- GLC (3 h): 175.8 mg/dL
- IP (3 h): 9.6 mg/dL
- K (3 h): 4.4 meq/L
- LDH (3 h): 84.2 IU/L
- Na (3 h): 138.8 meq/L
- PL (3 h): 141.5 mg/dL
- RALB (3 h): 4 g/dL
- TBIL (3 h): 0.3 mg/dL
- TC (3 h): 81.5 mg/dL
- TG (3 h): 55 mg/dL
- TP (3 h): 5.7 g/dL
- gamma-GTP (3 h): 3.2 IU/L
- TERMINAL_BW (6 h): 187.8 g
- APTT (6 h): 17.2 s
- Bas (6 h): 0%
- Eos (6 h): 0.6%
- Fbg (6 h): 224.8 mg/dL
- Hb (6 h): 13.4 g/dL
- Ht (6 h): 40.5%
- Lym (6 h): 74.6%
- MCH (6 h): 21.6 pg
- MCHC (6 h): 33.2%
- MCV (6 h): 65.1 fL
- Mono (6 h): 5.8%
- Neu (6 h): 19.4%
- PT (6 h): 12.7 s
- Plat (6 h): 97.4 x10_4/uL
- RBC (6 h): 621.2 x10_4/ul
- Ret (6 h): 10%
- WBC (6 h): 125.4 x10_2/uL
- KIDNEY_L (6 h): 0.9 g
- KIDNEY_R (6 h): 0.9 g
- KIDNEY_TOTAL (6 h): 1.8 g
- LIVER (6 h): 8.4 g
- A/G (6 h): 2.1
- ALP (6 h): 924.4 IU/L
- ALT (6 h): 33 IU/L
- AST (6 h): 70.4 IU/L
- BUN (6 h): 10.2 mg/dL
- CRE (6 h): 0.6 mg/dL
- Ca (6 h): 10.5 mg/dL
- Cl (6 h): 104 meq/L
- DBIL (6 h): 0.022 mg/dL
- GLC (6 h): 171.4 mg/dL
- IP (6 h): 9.1 mg/dL
- K (6 h): 4.9 meq/L
- LDH (6 h): 77 IU/L
- Na (6 h): 137.2 meq/L
- PL (6 h): 142.8 mg/dL
- RALB (6 h): 3.7 g/dL
- TBIL (6 h): 0.4 mg/dL
- TC (6 h): 80 mg/dL
- TG (6 h): 73 mg/dL
- TP (6 h): 5.4 g/dL
- gamma-GTP (6 h): 1 IU/L
- TERMINAL_BW (9 h): 183.3 g
- APTT (9 h): 17.2 s
- Bas (9 h): 0%
- Eos (9 h): 0.6%
- Fbg (9 h): 226 mg/dL
- Hb (9 h): 13.2 g/dL
- Ht (9 h): 40.2%
- Lym (9 h): 67.2%
- MCH (9 h): 21.5 pg
- MCHC (9 h): 33%
- MCV (9 h): 65.1 fL
- Mono (9 h): 8.8%
- Neu (9 h): 23.4%
- PT (9 h): 13.3 s
- Plat (9 h): 107 x10_4/uL
- RBC (9 h): 617.4 x10_4/ul
- Ret (9 h): 9.1%
- WBC (9 h): 126.9 x10_2/uL
- KIDNEY_L (9 h): 0.8 g
- KIDNEY_R (9 h): 0.8 g
- KIDNEY_TOTAL (9 h): 1.7 g
- LIVER (9 h): 7.7 g
- A/G (9 h): 2.2
- ALP (9 h): 887.6 IU/L
- ALT (9 h): 31.6 IU/L
- AST (9 h): 71.6 IU/L
- BUN (9 h): 12.6 mg/dL
- CRE (9 h): 0.5 mg/dL
- Ca (9 h): 10.2 mg/dL
- Cl (9 h): 104.2 meq/L
- DBIL (9 h): 0.006 mg/dL
- GLC (9 h): 178.2 mg/dL
- IP (9 h): 9.8 mg/dL
- K (9 h): 4.5 meq/L
- LDH (9 h): 93.6 IU/L
- Na (9 h): 137.2 meq/L
- PL (9 h): 122.6 mg/dL
- RALB (9 h): 3.8 g/dL
- TBIL (9 h): 0.5 mg/dL
- TC (9 h): 71.6 mg/dL
- TG (9 h): 40.6 mg/dL
- TP (9 h): 5.6 g/dL
- gamma-GTP (9 h): 1.4 IU/L
- TERMINAL_BW (24 h): 202.6 g
- APTT (24 h): 16.4 s
- Bas (24 h): 0%
- Eos (24 h): 1%
- Fbg (24 h): 231.6 mg/dL
- Hb (24 h): 13.5 g/dL
- Ht (24 h): 40.7%
- Lym (24 h): 83.8%
- MCH (24 h): 21.9 pg
- MCHC (24 h): 33.1%
- MCV (24 h): 66.1 fL
- Mono (24 h): 6.2%
- Neu (24 h): 9%
- PT (24 h): 12.8 s
- Plat (24 h): 107.7 x10_4/uL
- RBC (24 h): 616 x10_4/ul
- Ret (24 h): 9.1%
- WBC (24 h): 163 x10_2/uL
- KIDNEY_L (24 h): 1 g
- KIDNEY_R (24 h): 0.9 g
- KIDNEY_TOTAL (24 h): 1.9 g
- LIVER (24 h): 10.2 g
- A/G (24 h): 2
- ALP (24 h): 915.6 IU/L
- ALT (24 h): 44.4 IU/L
- AST (24 h): 71 IU/L
- BUN (24 h): 17.2 mg/dL
- CRE (24 h): 0.5 mg/dL
- Ca (24 h): 10.6 mg/dL
- Cl (24 h): 103.8 meq/L
- DBIL (24 h): 0.014 mg/dL
- GLC (24 h): 179.6 mg/dL
- IP (24 h): 7.5 mg/dL
- K (24 h): 5.1 meq/L
- LDH (24 h): 98.6 IU/L
- Na (24 h): 137 meq/L
- PL (24 h): 164 mg/dL
- RALB (24 h): 3.9 g/dL
- TBIL (24 h): 0.3 mg/dL
- TC (24 h): 85.2 mg/dL
- TG (24 h): 149.8 mg/dL
- TP (24 h): 5.8 g/dL
- gamma-GTP (24 h): 2.4 IU/L
